From US10780174B2, “Lipid-linked prodrugs” (The University of British Columbia, priority 2015, dated 2020)

Key:
[1] = Particle size and polydispersity of LNP containing prodrug (dynamic light scattering); format: physicochemical; details: PDI in brackets; for Particle size (PDI) PC-Chol LNP: LD-DEX prodrug in PC-Chol LNP; for Particle size (PDI) [ionizable LNP]: LD-DEX prodrug in ionizable LNP
Description: (§1) Preparation of LNP Systems: PC-Chol LNP systems were prepared by rapidly mixing POPC, cholesterol, lipid-linked prodrug and PEG-DMPE (in molar ratio of 49/39/10/2) dissolved in ethanol with phosphate-buffered saline using a T-junction mixer. Formulations were dialyzed against phosphate-buffered saline to remove residual ethanol and to raise the pH to 7.4. PC-TO and ionizable LNP systems were prepared in the same way except that the lipid compositions for these systems are: POPC, triolein, lipid-linked prodrug and PEG-DSPE (in molar ration of 19/70/10/1), and ionizable lipid, DSPC, cholesterol, lipid-linked prodrug and PEG-DMPE (in molar ration of 40/10/38.5/10/1.5), respectively.
Characterization of LNP: Particle size was determined by dynamic light scattering using a Malvern Zetasizer Nano ZS™ (Malvern, UK) following buffer exchange into phosphate-buffered saline. Number-weighted size and distribution data was used. Lipid concentrations were determined by measuring total cholesterol using the Cholesterol E enzymatic assay kit from Wako Chemicals USA™ (Richmond, Va.). The morphology of LNP formulations containing LD-DEX was analyzed by cryogenic-transmission electron microscopy (cryoTEM) as described previously [Leung et al. (2012)].

[2] = system: immunostimulatory effects of LNP-CpG (plasma cytokines); assay: In vivo immune suppression by LD-DEX prodrugs, LNP-CpG model; parameters: species or system C57Bl/6 mice; details: mice, i.v., 10 mg/kg of CpG, 2 h post injection
Description: 6-8 Weeks old female C57Bl/6 mice (Charles River Laboratories™, Wilmington, Mass.) were injected intravenously with lipid nanoparticles containing CpG DNA oligonucleotides (10 mg/kg), mRNA (3 mg/kg) or plasmid DNA (pDNA) (1 mg/kg). Animals were euthanized 2 hours post-injection and blood was collected via intracardiac or saphenous sampling. Plasma was separated from whole blood by centrifugation and analyzed for proinflammatory cytokines using the Mesoscale Proinflammatory Multiplex™ kit (Rockville, Md.) according to manufacturer's instruction. All procedures were approved by the Animal Care Committee at the University of British Columbia and were performed in accordance with guidelines established by the Canadian Council on Animal Care.

[3] = In vitro degradation of lipid-linked prodrugs in LNP, mouse plasma; format: in vitro ADME; details: LNP; for prodrug cleavage/degradation after 1 h in plasma: 37° C., mouse plasma
Description: (§2) Quantitation of prodrugs by HPLC: LD-DEX/DTX were quantified by ultra high-pressure liquid chromatography (UHPLC) using a Waters Acquity™ UPLC system equipped with a photodiode array detector (PDA) and evaporative light scattering (ELS) detector; Empower™ data acquisition software version 3.0 was used (Waters™, USA). Separations were performed using a Waters Acquity™ BEH C18 column (1.7 μm, 2.1×100 mm) at a flow rate of 0.5 ml/min, with mobile phases A and B consisting of methanol/10 mM ammonium bicarbonate (80/20% v/v) and methanol/acetonitrile (80/20% v/v), respectively. The mobile phases were delivered at a programmed linear gradient (45%-80% B in 1 min then to 99% B at 2 min) at a column temperature of 55° C. The analyte was measured by PDA (at a wavelength of 239 nm) and ELS detector against calibration standard curves. For the analysis of LD-DEX/DTX breakdown to active compound, linear gradients of 20/80% to 100/0% (acetonitrile/water, v/v) over 7 min were used.
To determine the biodegradability of the dexamethasone or docetaxel prodrugs (LD-DEX/DTX), 1 mg/mL LNP was incubated in mouse plasma (Cedarlane™, Burlington, Ontario) or PBS supplemented with 10 U of purified esterase (Sigma-Aldrich™, St. […] Post incubation, four volumes of chloroform/methanol (2:1) was added and the mixture was vortex mixed. Samples were centrifuged at 13,000 g for 5 minutes and the upper phase was discarded. The remaining organic phase was dried down under vacuum and the resulting lipid extract was dissolved in methanol/acetonitrile (1:1). Quantity of parent LD-DEX/DTX compound was determined by ultra high pressure liquid chromatography on a Waters Acquity™ H-Class UPLC System™ equipped with a BEH C18 column and a photodiode array detector.

[4] = system: IL1β expression in RAW 264.7 mouse macrophage cells; assay: In vitro immune suppression, LPS-treated RAW 264.7 cells, IL1β qRT-PCR; format: cell-based; details: 2 ng/mL LPS, 4 h
Description: RAW 264.7 mouse macrophage cells were seeded at 250,000 cells per mL on 12-well plates and incubated at 37° C. overnight. Lipopolysaccharide (LPS) was dissolved in phosphate buffered saline at a concentration of 2 μg/ml. Cells were treated with lipid nanoparticles containing LD-DEX prodrugs and 2 ng/ml of LPS for 4 hours. This LPS concentration was chosen due to its ability to increase IL1β expression approximately 1000 times as compared to untreated cells. At the end of the incubation period, culture medium was aspirated and cellular RNA was extracted using the Purelink RNA™ extraction kit according to manufacturer's protocol (Life Technologies™, Burlington, ON). The concentration of extracted RNA was determined using a Nanodrop Lite™ (Thermo Fisher™). 1 μg of RNA was converted to cDNA using the High Capacity cDNA Reverse Transcription kit (Life Technologies™, Burlington, ON). In order to validate the sample preparation, a no template control and a negative reverse transcriptase control were included. The cDNA was then quantified using comparative real-time qPCR where the Ct (threshold cycle) values are converted to relative quantity using the 2-ΔΔCT method. The primer-probe sets were designed to bind to cDNA of Interleukin-1β(IL1β). Hypoxanthine-guanine phosphoribosyltransferase (HPRT) was chosen as the endogenous normalizer gene, which is known to maintain consistent levels with varying treatments.

[5] = Prodrug incorporation (entrapment) in lipid nanoparticles, UHPLC; format: physicochemical; details: for % Entrapment PC-Chol LNP: LD-DEX prodrug in PC-Chol LNP; for % Entrapment [ionizable LNP]: LD-DEX prodrug in ionizable LNP
Description: as §1, §2

[6] = system: OVCAR3 cells; assay: In vitro growth inhibition by LD-DTX prodrugs, cell viability assay; format: cell-based; details: Homo sapiens, OVCAR-3, 48 h, Ovcar3 cells
Description: OVCAR3 cells were obtained from ATCC (Manassas, Va.). Cells were seeded at 12,000 cells per well on 96-well plates and treated with free docetaxel, prodrugs, lipid nanoparticle formulations with or without prodrugs at 0 to 15 μM of docetaxel for 48 h. Cell viability was determined by a colorimetric assay, based on the tetrazolium salt MIT (3-(4,5-dimethylthiazol-2-yl)-2,5-diphenyltetrazolium bromide), as described previously [Mossman 1983].

[7] = In vitro dissociation of lipid-linked prodrugs from LNP in human plasma; format: in vitro ADME; details: human plasma over 24 h, 37° C., PC-Chol LNP or ionizable LNP
Description: LNP were incubated for 0, 3, 5 and 24 h at 37° C. in 400 μL of sterile human plasma (Cedarlane™, Burlington, Ontario) at a final lipid concentration of 1.2 mM. At the various time-points, samples were loaded onto a 1.5×27 cm Sepharose CL-4B column (Sigma-Aldrich™, St. Louis, Mo.). 30×2 mL fractions were collected. Three volumes of methanol/acetonitrile (1:1) were added to each fraction and analyzed by UHPLC to determine the residual LD-DEX/DTX as described above.

[8] = system: purified porcine esterase; assay: In vitro degradation of lipid-linked prodrugs in LNP, purified esterase in PBS; details: LNP, 24 h incubation

| Compound | Particle size (PDI) PC-Chol LNP [1] | Particle size (PDI) [ionizable LNP] [1] | plasma cytokine (TNFα, IL-6 and IL-10) levels versus control LNP-CpG [2] | prodrug cleavage/degradation after 1 h in plasma [3] | IL1β expression versus control LNP without prodrug [4] | % Entrapment PC-Chol LNP [5] [%] | % Entrapment [ionizable LNP] [5] | IC50 ([6]; Free drugs) [nM] | IC50 ([6]; PC-Chol LNP) [nM] | IC50 ([6]; PC-TO LNP) [nM] | IC50 ([6]; ionizable LNP) [nM] | prodrug dissociation rate from LNP [7] | prodrug dissociation rate from LNP ([7]; listed as LD18) | release of active drug (UPLC chromatogram) in mouse plasma ([3]; 24 h incubation) | release of active drug (UPLC chromatogram) in purified esterase [8] |
| --- | --- | --- | --- | --- | --- | --- | --- | --- | --- | --- | --- | --- | --- | --- | --- |
| CCCCCCCC/C=C\CCCCCCCCOC(=O)CCC(=O)OCC(=O)[C@@]1(O)[C@H](C)C[C@H]2[C@@H]3CCC4=CC(=O)C=C[C@]4(C)[C@@]3(F)[C@@H](O)C[C@@]21C [LD13-DEX, oleyl 2-((8S,9R,10S,11S,13S,14S,16R,17R)-9-fluoro-11,17-dihydroxy-10,13,16-trimethyl-3-oxo-6,7,8,9,10,11,12,13,14,15,16,17-dodecahydro-3H-cyclopenta[a]phenanthren-17-yl)-2-oxoethyl succinate] | 61 (0.03) nm | [49 (0.07)] nm | able to suppress plasma cytokine | partially degraded | able to reduce IL1β expression | 100 | [96] % |  |  |  |  |  |  |  |  |
| CCCCCCCCCCCCCCCCOC(=O)CCC(=O)OCC(=O)[C@@]1(O)[C@H](C)C[C@H]2[C@@H]3CCC4=CC(=O)C=C[C@]4(C)[C@@]3(F)[C@@H](O)C[C@@]21C [LD14-DEX, palmityl 2-((8S,9R,10S,11S,13S,14S,16R,17R)-9-fluoro-11,17-dihydroxy-10,13,16-trimethyl-3-oxo-6,7,8,9,10,11,12,13,14,15,16,17-dodecahydro-3H-cyclopenta[a]phenanthren-17-yl)-2-oxoethyl succinate] | 67 (0.05) nm | [47 (0.06)] nm | able to suppress plasma cytokine | partially degraded | able to reduce IL1β expression | 100 | [95] % |  |  |  |  |  |  |  |  |
| CCCCCCCCCCCCCC(=O)OCC(COC(=O)CCC(=O)OCC(=O)[C@@]1(O)[C@H](C)C[C@H]2[C@@H]3CCC4=CC(=O)C=C[C@]4(C)[C@@]3(F)[C@@H](O)C[C@@]21C)OC(=O)CCCCCCCCCCCCC (stereo partly drawn) [LD17-DEX, 2,3-dimyristroylpropyl (2-((8S,9R,10S,11S,13S,14S,16R,17R)-9-fluoro-11,17-dihydroxy-10,13,16-trimethyl-3-oxo-6,7,8,9,10,11,12,13,14,15,16,17-dodecahydro-3H-cyclopenta[a]phenanthren-17-yl)-2-oxoethyl) succinate] |  | [48 (0.06)] nm | able to suppress plasma cytokine | not susceptible to degradation | able to reduce IL1β expression |  | [89] % |  |  |  |  |  |  |  |  |
| CCCCCCCC/C=C\CCCCCCCCOC(=O)CCC(=O)O[C@@H](C(=O)O[C@H]1C[C@@]2(O)[C@@H](OC(=O)c3ccccc3)[C@@H]3[C@]4(OC(C)=O)CO[C@@H]4C[C@H](O)[C@@]3(C)C(=O)[C@H](O)C(=C1C)C2(C)C)[C@@H](NC(=O)OC(C)(C)C)c1ccccc1 [LD18-DTX, (2R,3S)-1-(((2aR,4S,4aS,6R,9S,11S,12S,12aR,12bS)-12b-acetoxy-12-(benzoyloxy)-4,6,11-trihydroxy-4a,8,13,13-tetramethyl-5-oxo-2a,3,4,4a,5,6,9,10,11,12,12a,12b-dodecahydro-1H-7,11-methanocyclodeca[3,4]benzo[1,2-b]oxet-9-yl)oxy)-3-((tert-butoxycarbonyl)amino)-1-oxo-3-phenylpropan-2-yl(Z)-octadec-9-en-1-ylsuccinate] |  |  |  | largely not degraded |  |  |  | 23.9 | 37.3 | 131 | 64 | dissociated at a faster rate from lipid nanoparticles than LD22-DTX | dissociates from LNP faster than LD22 | active docetaxel (DTX) was observed | active docetaxel (DTX) was observed |
